Measured values from the supplement of paper PMC10307832.

Experiments:
Experiment in all cases: relative viability (nuclei count vs DMSO), 5 days (fraction); higher = more cells survive
[1] = tested on: NCI-H1915
Summary of the method: (§1)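 A single step with final 0.05% Triton X-100, 1% formaldehyde and 1 ug/ml Hoechst fixed the cells and stained nuclei 5 days after treatment. Lung cancer cell lines in 1536-well plates had been treated by pin tool the day after seeding with one drug alone or a fixed anchor-drug dose plus five library-drug doses (not always all listed) in √10 steps, and nuclei were counted on 4× images. Relative viability is the ratio of nuclei in treated wells to nuclei in vehicle wells, taken as the median of duplicate plates.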

[2] = tested on: LCLC-97TM1
Summary of the method: as §1

[3] = tested on: PC-14
Summary of the method: as §1

[4] = tested on: H3255
Summary of the method: as §1

[5] = tested on: NCI-H2347
Summary of the method: as §1

[6] = tested on: NCI-H647
Summary of the method: as §1

[7] = tested on: EPLC-272H
Summary of the method: as §1

[8] = tested on: ChaGo-K-1
Summary of the method: as §1

[9] = tested on: NCI-H661
Summary of the method: as §1

[10] = tested on: RERF-LC-KJ
Summary of the method: as §1

[11] = tested on: LC-2-ad
Summary of the method: as §1

[12] = tested on: NCI-H2087
Summary of the method: as §1

[13] = tested on: NCI-H23
Summary of the method: as §1

[14] = tested on: 201T
Summary of the method: as §1

[15] = tested on: NCI-H1666
Summary of the method: as §1

[16] = tested on: HCC-827
Summary of the method: as §1

[17] = tested on: NCI-H650
Summary of the method: as §1

[18] = tested on: NCI-H2126
Summary of the method: as §1

[19] = tested on: NCI-H2405
Summary of the method: as §1

[20] = tested on: COR-L 105
Summary of the method: as §1

[21] = tested on: NCI-H520
Summary of the method: as §1

[22] = tested on: HCC-78
Summary of the method: as §1

## CC(=O)O[C@@]12CO[C@@H]1C[C@H](O)[C@@]1(C)C(=O)[C@H](O)C3=C(C)[C@@H](OC(=O)[C@H](O)[C@@H](NC(=O)OC(C)(C)C)c4ccccc4)C[C@@](O)([C@@H](OC(=O)c4ccccc4)[C@H]21)C3(C)C [Docetaxel] + C[C@@H](Oc1cc(-c2cnn(C3CCNCC3)c2)cnc1N)c1c(Cl)ccc(F)c1Cl [Crizotinib] (partner 1 µM)
[1]; first compound 0.0002 µM
  relative viability: 0.892
[1]; first compound 0.000632 µM
  relative viability: 0.803
[1]; first compound 0.002 µM
  relative viability: 0.325
[1]; first compound 0.006325 µM
  relative viability: 0.181
[1]; first compound 0.02 µM
  relative viability: 0.141
[2]; first compound 0.000632 µM
  relative viability: 0.178
[2]; first compound 0.002 µM
  relative viability: 0.115
[2]; first compound 0.006325 µM
  relative viability: 0.139
[2]; first compound 0.02 µM
  relative viability: 0.12
[3]; first compound 0.0002 µM
  relative viability: 0.932
[3]; first compound 0.000632 µM
  relative viability: 0.861
[3]; first compound 0.002 µM
  relative viability: 0.317
[3]; first compound 0.006325 µM
  relative viability: 0.0812
[3]; first compound 0.02 µM
  relative viability: 0.0748
[4]; first compound 0.0002 µM
  relative viability: 0.654
[4]; first compound 0.000632 µM
  relative viability: 0.757
[4]; first compound 0.002 µM
  relative viability: 0.376
[4]; first compound 0.006325 µM
  relative viability: 0.267
[4]; first compound 0.02 µM
  relative viability: 0.252
[5]; first compound 0.0002 µM
  relative viability: 0.736
[5]; first compound 0.000632 µM
  relative viability: 0.702
[5]; first compound 0.002 µM
  relative viability: 0.695
[5]; first compound 0.006325 µM
  relative viability: 0.589
[5]; first compound 0.02 µM
  relative viability: 0.422
[6]; first compound 0.0002 µM
  relative viability: 0.769
[6]; first compound 0.000632 µM
  relative viability: 0.319
[6]; first compound 0.002 µM
  relative viability: 0.172
[6]; first compound 0.006325 µM
  relative viability: 0.117
[6]; first compound 0.02 µM
  relative viability: 0.1
[7]; first compound 0.0002 µM
  relative viability: 0.832
[7]; first compound 0.000632 µM
  relative viability: 0.547
[7]; first compound 0.002 µM
  relative viability: 0.321
[7]; first compound 0.006325 µM
  relative viability: 0.0867
[7]; first compound 0.02 µM
  relative viability: 0.1
[8]; first compound 0.0002 µM
  relative viability: 1.06
[8]; first compound 0.000632 µM
  relative viability: 0.813
[8]; first compound 0.002 µM
  relative viability: 0.457
[8]; first compound 0.006325 µM
  relative viability: 0.339
[8]; first compound 0.02 µM
  relative viability: 0.263
[9]; first compound 0.000632 µM
  relative viability: 1.06
[9]; first compound 0.002 µM
  relative viability: 0.914
[9]; first compound 0.006325 µM
  relative viability: 0.68
[9]; first compound 0.02 µM
  relative viability: 0.503
[10]; first compound 0.0002 µM
  relative viability: 0.868
[10]; first compound 0.000632 µM
  relative viability: 0.7
[10]; first compound 0.002 µM
  relative viability: 0.509
[10]; first compound 0.006325 µM
  relative viability: 0.196
[10]; first compound 0.02 µM
  relative viability: 0.166
[11]; first compound 0.0002 µM
  relative viability: 0.388
[11]; first compound 0.000632 µM
  relative viability: 0.342
[11]; first compound 0.002 µM
  relative viability: 0.318
[11]; first compound 0.006325 µM
  relative viability: 0.389
[11]; first compound 0.02 µM
  relative viability: 0.222
[12]; first compound 0.0002 µM
  relative viability: 0.854
[12]; first compound 0.000632 µM
  relative viability: 0.684
[12]; first compound 0.002 µM
  relative viability: 0.334
[12]; first compound 0.006325 µM
  relative viability: 0.182
[12]; first compound 0.02 µM
  relative viability: 0.156
[13]; first compound 0.0002 µM
  relative viability: 0.534
[13]; first compound 0.000632 µM
  relative viability: 0.412
[13]; first compound 0.002 µM
  relative viability: 0.271
[13]; first compound 0.006325 µM
  relative viability: 0.189
[13]; first compound 0.02 µM
  relative viability: 0.113
[14]; first compound 0.0002 µM
  relative viability: 0.983
[14]; first compound 0.000632 µM
  relative viability: 1.03
[14]; first compound 0.002 µM
  relative viability: 0.908
[14]; first compound 0.006325 µM
  relative viability: 0.646
[14]; first compound 0.02 µM
  relative viability: 0.5
[15]; first compound 0.0002 µM
  relative viability: 0.67
[15]; first compound 0.000632 µM
  relative viability: 0.508
[15]; first compound 0.002 µM
  relative viability: 0.337
[15]; first compound 0.006325 µM
  relative viability: 0.259
[15]; first compound 0.02 µM
  relative viability: 0.24
[16]; first compound 0.0002 µM
  relative viability: 0.943
[16]; first compound 0.000632 µM
  relative viability: 0.91
[16]; first compound 0.002 µM
  relative viability: 0.68
[16]; first compound 0.006325 µM
  relative viability: 0.416
[16]; first compound 0.02 µM
  relative viability: 0.342
[17]; first compound 0.0002 µM
  relative viability: 0.504
[17]; first compound 0.000632 µM
  relative viability: 0.356
[17]; first compound 0.002 µM
  relative viability: 0.253
[17]; first compound 0.006325 µM
  relative viability: 0.208
[17]; first compound 0.02 µM
  relative viability: 0.204
[18]; first compound 0.0002 µM
  relative viability: 1.01
[18]; first compound 0.000632 µM
  relative viability: 1.03
[18]; first compound 0.002 µM
  relative viability: 0.632
[18]; first compound 0.006325 µM
  relative viability: 0.382
[18]; first compound 0.02 µM
  relative viability: 0.322
[19]; first compound 0.0002 µM
  relative viability: 0.87
[19]; first compound 0.000632 µM
  relative viability: 0.623
[19]; first compound 0.002 µM
  relative viability: 0.447
[19]; first compound 0.006325 µM
  relative viability: 0.396
[19]; first compound 0.02 µM
  relative viability: 0.292
[20]; first compound 0.0002 µM
  relative viability: 0.768
[20]; first compound 0.000632 µM
  relative viability: 0.588
[20]; first compound 0.002 µM
  relative viability: 0.361
[20]; first compound 0.006325 µM
  relative viability: 0.285
[20]; first compound 0.02 µM
  relative viability: 0.248
[21]; first compound 0.0002 µM
  relative viability: 0.672
[21]; first compound 0.000632 µM
  relative viability: 0.784
[21]; first compound 0.002 µM
  relative viability: 0.196
[21]; first compound 0.006325 µM
  relative viability: 0.155
[21]; first compound 0.02 µM
  relative viability: 0.156
[22]; first compound 0.0002 µM
  relative viability: 0.33
[22]; first compound 0.000632 µM
  relative viability: 0.32
[22]; first compound 0.002 µM
  relative viability: 0.245
[22]; first compound 0.006325 µM
  relative viability: 0.308
[22]; first compound 0.02 µM
  relative viability: 0.223
